Assay results: US20140378408A1, “NUCLEOSIDE 5'-PHOSPHOROTHIOATE ANALOGUES AND USES THEREOF” (BAR-ILAN UNIVERSITY, an Israeli University, priority 2012, published 2014)
Entries after “also recorded” stand apart in the source; their conditions may differ.

Assays:
human chondrocyte cells = test: Hydrolysis of extracellular ATP in the presence of human chondrocyte culture; type: cell-based; details: 100 μM each, 8 h, ATP alone 56%, without cells 18%
Experimental: In this study, the metabolic hydrolysis of ATP was evaluated. […] Following incubation, the samples were collected and heated at 80° C. for 15 min and extracted with chloroform, applied onto an anion exchange cartridge, and freeze-dried. The resulting residue was analyzed by HPLC.

[1] = target: T1, NPP1 from matrix vesicles (MVs) (Homo sapiens, UniProt P22413); test: NTMP hydrolysis in matrix vesicles; type: biochemical; details: 0.1 mM, NTMP 0.1 mM, OD 405 nm
T1 construct: Its hydrolysis by endogenous enzyme (NPP1) from matrix vesicles (MVs); from tissue; host or cells: matrix vesicles (MVs)
T1 sequence (P22413 whole entry): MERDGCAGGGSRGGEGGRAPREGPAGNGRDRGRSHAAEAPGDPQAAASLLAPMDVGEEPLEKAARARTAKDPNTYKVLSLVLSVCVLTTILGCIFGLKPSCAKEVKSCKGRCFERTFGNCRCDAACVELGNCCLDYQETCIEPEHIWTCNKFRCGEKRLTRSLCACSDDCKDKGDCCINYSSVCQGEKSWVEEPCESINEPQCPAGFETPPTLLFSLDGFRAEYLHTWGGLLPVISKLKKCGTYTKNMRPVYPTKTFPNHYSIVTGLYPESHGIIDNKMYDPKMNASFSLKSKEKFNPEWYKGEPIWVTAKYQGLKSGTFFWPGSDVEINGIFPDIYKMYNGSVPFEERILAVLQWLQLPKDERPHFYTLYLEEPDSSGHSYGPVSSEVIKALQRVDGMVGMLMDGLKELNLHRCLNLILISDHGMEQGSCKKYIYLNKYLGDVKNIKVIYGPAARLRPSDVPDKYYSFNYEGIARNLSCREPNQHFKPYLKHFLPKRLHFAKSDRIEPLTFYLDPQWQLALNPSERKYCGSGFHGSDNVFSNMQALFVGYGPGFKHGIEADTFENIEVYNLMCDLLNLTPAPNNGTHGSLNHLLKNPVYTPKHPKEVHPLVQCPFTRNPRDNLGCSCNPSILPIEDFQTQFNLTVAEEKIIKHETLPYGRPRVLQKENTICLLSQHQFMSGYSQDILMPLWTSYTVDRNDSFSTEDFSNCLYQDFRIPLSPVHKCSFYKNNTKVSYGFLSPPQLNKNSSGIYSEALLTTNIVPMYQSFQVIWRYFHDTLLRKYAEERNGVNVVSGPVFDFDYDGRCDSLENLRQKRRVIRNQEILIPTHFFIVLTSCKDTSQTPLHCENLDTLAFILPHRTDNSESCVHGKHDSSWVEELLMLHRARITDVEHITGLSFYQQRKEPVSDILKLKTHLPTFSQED
Experimental: (§1) Increased chondrocyte PPi production, and PPi-generating NPP1 activity are linked with CPPD crystal deposition disease, common in aging and osteoarthritic cartilage. […] Its hydrolysis by endogenous enzyme (NPP1) from matrix vesicles (MVs), human chondrocytes or cartilage pieces results in elevated OD at 405 nm.
In order to test the ability of the NPP1 inhibitor APPCCl2P-α-S (isomer A) to inhibit NTMP hydrolysis in MVs, MVs at 2.6 mg/ml (final concentration) were incubated with 0.1 mM NTMP in 2-[(2-Hydroxy-1,1-bis(hydroxymethyl)ethyl)amino]ethanesulfonic acid (TES; Sigma catalog number T1375), pH 7.37, in the presence or absence of 0.1 mM of said NPP1 inhibitor for 0, 15′, 30′, 1, 2, 4, 8 hours at 37° C. At each time point the reaction was read at 405 nm.

cartilage pieces = test: NTMP hydrolysis in cartilage pieces; parameters: species or system human; details: 0.1 mM, NTMP 0.1 mM, OD 405 nm
Text: as §1
In order to test the ability of the NPP1 inhibitor to inhibit NTMP hydrolysis in cartilage pieces, 12 pieces of cartilage of a uniform diameter were weighed and placed in wells of a 96-well plate overnight in DMEM w/o phenol red with penicillin-streptomycin-glutamine (PSG). The pieces of cartilage were incubated with 0.1 mM NTMP in TES, pH 7.37, in the presence or absence of 0.1 mM of the NPP1 inhibitor for 0, 15′, 30′, 1, 2, 4, 6, 8 hours at 37° C. At each time point 200 μl were removed from each well and the reaction was read at 405 nm.

chondrocytes = test: Pyrophosphate formed by ATP hydrolysis in the presence of chondrocytes (fluorogenic sensor); type: cell-based, human; details: 8 h, ATP alone 0.46 μM, without chondrocytes 0.26 μM
matrix vesicles (MVs) = test: CPPD formation in MVs by FTIR analysis; parameters: species or system human; details: MV+ATP+analogue
[2] = IV administration to mice, detection in blood by HPLC; type: in vivo
Aβ28-Cu^+ complex = target: T2, Aβ28-Cu^+ complex (Homo sapiens, UniProt P05067); test: Titration of Aβ28-Cu^+ complex by chelators monitored by 1H-NMR; details: 0.8 mM Aβ28-Cu^+, pD 7
T2 construct: we first studied Aβ28, as a more soluble fragment of Aβ40; purchased Sigma-Aldrich
T2 sequence (P05067 672-699 limits assumed, one chain of several): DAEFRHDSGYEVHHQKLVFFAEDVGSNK

PC12 cells = test: Stability of nucleotides in PC12 cells
[3] = Metabolic stability in mouse brain, liver and blood homogenates (HPLC); type: in vitro ADME, mice; details: 37° C., up to 180 min
Experimental: In order to use APCPP-γ-S as a neuroprotectant agent and test its activity in an animal model, we first evaluated the metabolic stability of APCPP-γ-S in several tissues such as liver, brain and blood. In this assay we took samples from mice brain, liver and blood. The tissue samples were homogenated by sonication and split to 0.5 ml aliquots. Each sample was mixed with 0.1 mg of APCPP-γ-S and incubated at 37° C. for 10, 30, 90 and 180 min. After incubation, the samples were collected and extracted with chloroform at 1:1 v/v ratio. The aqueous layer was removed and freeze-dried. Samples were loaded onto an activated Starta X-AW weak anion exchange cartridge, washed with H2O (1 ml) and eluted with MeOH:H2O (1:1, 1 ml) followed by NH4OH:MeOH:H2O (2:25:73, 1 ml), and then freeze-dried. The resulting residue was analyzed by HPLC. […] Each analysis cycle was set to 30 minutes. The chromatographic flow was monitored at 260 nm and integrated using EZChrom Elite Software.

Aβ40-Cu^2+ aggregates = target: T3, Aβ40-Cu^2+ aggregates (Homo sapiens, UniProt P05067); test: TEM, size reduction of Aβ40-Cu^2+ aggregates; details: 6 eq, 7 h; aggregates 2.5 μm before
T3 construct: purchased GL-Biochem (Shanghai)
T3 sequence (P05067 672-711): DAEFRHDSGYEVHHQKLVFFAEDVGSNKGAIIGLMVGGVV
Experimental: TEM sample was prepared from 200 μM Aβ-M^2+ 1:1 solution (pH 7.4 or 6.6 for Aβ40-Zn^2+ or Aβ40-Cu^2+, respectively) incubated in a rotary shaker for 9 days at RT. A cloudy mixture with massive sediments was obtained. TEM samples were prepared by diluting the stock solutions with PBS to a concentration of 25 μM with or without APCPP-γ-S. In this way four samples were obtained: (i) 25 μM Aβ40-Cu^2+; (ii) 25 μM Aβ40-Cu^2+ containing 150 μM APCPP-γ-S; (iii) 25 μM Aβ40-Zn^2+; and (iv) 25 μM Aβ40-Zn^2+ containing 150 μm APCPP-γ-S. The mixtures were incubated in a rotary shaker for 7 h and after vortexing, a sample was transferred to a gold grid, for Aβ40-Cu^2+, or a copper grid for Aβ40-Zn^2+. The wet grid was left to dry at RT overnight.
To validate the DLS data indicating the efficiency of APCPP-γ-S, we monitored the dissolution of Aβ40-M^2+ aggregates in the presence of APCPP-γ-S by TEM. Aβ40-Cu^2+ and Aβ40-Zn^2+ 1:1 complexes were incubated for 9 days at RT, resulting in a significant sediment. Aβ40-Cu^2+ aggregates of 2.5 μm in diameter (FIG. 6A) and Aβ40-Zn^2+ aggregates of different sizes from 100 nm to 2.5 μm (FIG. 6C) were observed by TEM measurements. APCPP-γ-S (6 eq) was then added and the mixture was incubated for 7 h.

With `Nc1ncnc2c1ncn2[C@@H]1O[C@H](COP(O)(=S)OP(=O)(O)C(Cl)(Cl)P(=O)(O)O)[C@@H](O)[C@H]1O` (single isomer, unassigned; isomer a) [APPCCl2P-α-S (isomer A), adenosine 5′-[Pα-thio]-β,γ-(dichloromethylene)triphosphate] as the molecule, how does the “degradation of ATP on co-application” value (human chondrocyte cells) read?
The value was 22%.

What about the “inhibition of NTMP hydrolysis in MVs” value [1] of the same molecule?
The value was “inhibit the hydrolysis of NTMP”.

What about the “inhibition of NTMP hydrolysis in cartilage pieces” value (cartilage pieces) of the same molecule?
Its value is “inhibit the hydrolysis of NTMP”.

What about the “PPi formed on co-application with ATP” value (chondrocytes) of the same molecule?
Its value is 0.029 µM.

And the “CPPD production in MVs (FTIR bands 920 and 1125 cm^−1)” value (matrix vesicles (MVs))?
The value was “a decrease in production of CPPD”.

Which “detection in blood after IV administration” value [2] does the source give for `Nc1ncnc2c1ncn2[C@@H]1O[C@H](COP(O)(=S)OP(=O)(O)C(Cl)(Cl)P(=O)(O)O)[C@@H](O)[C@H]1O` (single isomer, unassigned) [APPCCl2P-α-S, adenosine 5′-[Pα-thio]-β,γ-(dichloromethylene)triphosphate] here?
The value was “could be detected in blood (by HPLC) even after 3 h”.

For `Nc1ncnc2c1ncn2[C@@H]1O[C@H](COP(=O)(O)OP(O)(O)=S)[C@@H](O)[C@H]1O` [ADP-β-S, adenosine 5′-[β-thio]diphosphate, reference compound], which “equivalents at which the spectrum resembled that of pure Aβ28” value (Aβ28-Cu^+ complex) is on record?
Its value is 5 eq.

And the “fold more stable in PC12 cells than parent nucleotide (GDP, ADP)” value (PC12 cells)?
Its value is 3 fold.

With `Nc1ncnc2c1ncn2[C@@H]1O[C@H](COP(=O)(O)CP(=O)(O)OP(O)(O)=S)[C@@H](O)[C@H]1O` [APCPP-γ-S, adenosine 5′-[Pγ-thio]-α,β-methylenetriphosphate] as the molecule, how does the “metabolic stability in brain, liver and blood” value [3] read?
Its value is “no significant degradation after 3 h; also recorded: could be detected even after 180 min”.

And the “aggregate size after addition” value (Aβ40-Cu^2+ aggregates)?
The value was “less than 250 nm”.
